According to patent US9422262B2, “Compounds and methods for treating diseases mediated by protease activated receptors” (The Broad Institute, Inc., priority 2010, dated 2016):
Values joined by “and” are separate entries in the source; they are usually repeats but may differ in a detail not shown here. Equal entries are not always repeated.

Key:
[1] = Stability in mouse plasma; assay type: in vitro ADME
Description: (§1) Since there are also situations in which longer term anticoagulation is desired, we performed further studies in the thrombus formation model to assess analogs of compound 1 that may have a more long-lived effect. […] This instability in mouse plasma may have contributed to its short half-life of efficacy in vivo.

cAMP production = cAMP production in washed platelets (competitive immunoassay); assay type: cell-based, human; conditions: 10 μM, PGE1 as control
Experimental: For this assay, platelets obtained from individual donors were washed and incubated with the probe. Platelets exposed to PGE1 (which causes elevation of platelet cAMP levels) are used as controls. Following incubation, platelets are lysed and evaluated in a commercially available competitive immunoassay of cAMP. Compounds that raise cAMP levels less than 50% of that of PGE1 are considered negative in this assay.

thrombus formation = assay: Thrombus formation following laser-induced injury of the cremaster arteriole in mice; assay type: in vivo
Description: PAR1 is the thrombin receptor on human platelets and serves an important function in mediating thrombus formation. We tested compound 1 to determine whether it inhibited thrombus formation following laser-induced injury of the cremaster arteriole in mice. The dominant PAR receptor on mouse platelets is PAR4. However, since compound 1 acts at a non-orthosteric site and mouse PAR4 differs from human PAR4, we reasoned that compound 1 may be able to block mouse PAR4. […] When infused into mice at a concentration of 5 mg/kg, compound 1 inhibited platelet accumulation during thrombus formation by >90% (FIG. 4B). Infusion of 5 mg/kg also impaired fibrin generation during thrombus formation (FIG. 4C). Thus, compound 1 blocks both cellular- and coagulation protein-mediated arms of thrombus formation. […] The compound was therefore infused every 30 minutes during the course of these experiments. The short half-life of compound 1 in vivo may be useful in scenarios in which anticoagulation is only required for a short period of time or when anticoagulation needs to be reversed quickly, such as anticoagulation prior to invasive procedures or surgery.
as §1

platelets = assay: P-selectin surface expression on platelets activated with other platelet agonists; assay type: cell-based, human; conditions: FIG. 1A
Experimental: (§2) To confirm the specificity of compound 1 for PAR1, platelets were incubated with compound 1 and subsequently activated with a variety of platelet agonists. P-selectin surface expression was monitored to detect platelet activation. […] In contrast, an IC50 for inhibition of other agonists was not reached even at concentrations >30-fold its IC50 for PAR1-mediated secretion. To further evaluate whether PAR1 is the target of compound 1, we tested the ability of the compound to inhibit Ca^2+ flux in HEK293 cells overexpressing recombinant PAR1.

PAR1 = target: T1, PAR1 (Homo sapiens, UniProt P25116); assay: PAR1-mediated platelet aggregation and shape change; assay type: cell-based; design: endogenous in cells; host or cells: platelets (platelet-rich plasma; washed platelets from individual donors); conditions: FIG. 3A
T1 sequence (P25116 22-425): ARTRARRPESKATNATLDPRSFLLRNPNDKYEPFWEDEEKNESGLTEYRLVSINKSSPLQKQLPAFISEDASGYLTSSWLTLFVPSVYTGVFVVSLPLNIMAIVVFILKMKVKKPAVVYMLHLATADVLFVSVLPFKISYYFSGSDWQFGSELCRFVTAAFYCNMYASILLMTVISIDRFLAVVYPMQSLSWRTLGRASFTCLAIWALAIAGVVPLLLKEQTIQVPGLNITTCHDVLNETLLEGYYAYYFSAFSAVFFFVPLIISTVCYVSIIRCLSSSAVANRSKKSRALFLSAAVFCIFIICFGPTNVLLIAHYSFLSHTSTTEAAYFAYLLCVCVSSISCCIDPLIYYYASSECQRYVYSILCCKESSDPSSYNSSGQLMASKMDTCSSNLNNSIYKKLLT
Description: (§3) This pattern of inhibition is consistent with that of an allosteric inhibitor. […] This observation raised the possibility that compound 1 blocks PAR1 signaling through Gαq (which mediates platelet aggregation downstream of PAR1), but not Gα12/13 (which mediates shape change downstream of PAR1). A previously identified PAR1 inhibitor, 3,5-difluoro aminoisoxazole (3,5-DFAI), inhibited both shape change and aggregation. Shape change that occurred in the presence of compound 1 was blocked by the Rho kinase inhibitor Y27632, confirming participation of Rho kinase downstream of Gα12/13 in compound-1-resistance shape change (FIG. 3A). […] PAR1-mediated decrease in TER in these cells is dependent on Gα12. […] In contrast, 3,5-DFAI inhibited SFLLRN-mediated decrease in TER (FIG. 3B) and compound 1 inhibited Gαq-mediated Ca^2+ flux in these MDCK cells (FIG. 3C).

[2] = tested on: Gα12 signaling downstream of PAR1; assay: PAR1-mediated transmembrane resistance (TER) in MDCK cells overexpressing Gα12; assay type: cell-based; conditions: FIG. 3B
Description: as §3

Par1 (thrombin) receptor = target: T2, Par1 (thrombin) receptor (Homo sapiens, UniProt P25116); assay: SFLLRN-mediated granule secretion, platelet-rich plasma, luciferin-luciferase ATP readout (primary assay); assay type: cell-based; conditions: two retests of the probe; platelet-rich plasma; read-out: IC50, SFLLRN-mediated granule secretion
T2 construct: endogenous in cells; host or cells: platelets (platelet-rich plasma; washed platelets from individual donors)
T2 sequence (P25116 22-425): T1 sequence (P25116 22-425)
Experimental: The compounds were tested in two independent IC50 determination experiments using the primary assay measuring SFLLRN-mediated granule secretion. For this assay, platelet-rich plasma is treated with putative inhibitors prior to activation by the SFLLRN peptide, which targets the Par1 (thrombin) receptor. Upon activation, platelets secrete dense granules, which are concentrated with ATP. Platelet activation and possible inhibition are monitored by a luciferin-luciferase assay (CellTiter-Glo without lysis reagent) to measure the ATP secreted from activated platelets. Luminescence measurements are made using a plate reader (Envision, PerkinElmer) capable of detecting luminescence.

[3] = Stability in human plasma; assay type: in vitro ADME
Description: as §1

PAR4 = target: T3, PAR4 (Homo sapiens, UniProt Q96RI0); assay: Platelet activation induced through PAR4; assay type: cell-based; conditions: FIG. 1A
T3 construct: endogenous in cells; host or cells: platelets
T3 sequence (Q96RI0 18-385): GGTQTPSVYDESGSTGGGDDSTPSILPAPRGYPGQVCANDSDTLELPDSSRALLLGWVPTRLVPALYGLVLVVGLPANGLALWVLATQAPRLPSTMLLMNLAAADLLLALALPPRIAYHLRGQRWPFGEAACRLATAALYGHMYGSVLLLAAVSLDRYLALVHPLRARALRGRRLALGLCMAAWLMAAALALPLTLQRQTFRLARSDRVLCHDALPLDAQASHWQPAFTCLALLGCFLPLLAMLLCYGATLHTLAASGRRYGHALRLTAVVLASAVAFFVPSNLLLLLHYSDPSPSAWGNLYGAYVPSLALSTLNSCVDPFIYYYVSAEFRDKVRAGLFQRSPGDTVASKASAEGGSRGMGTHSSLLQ
Experimental: as §2

Gαq-mediated Ca2+ flux = assay: SFLLRN-induced Gαq-mediated Ca2+ flux in MDCK cells; assay type: cell-based; conditions: FIG. 3C
Description: as §3

## CCCC(=O)Nc1cccc(NC(=O)c2ccccc2Br)c1 [Compound 1]
[1]
  remaining after 5 hour incubation in mouse plasma: 1.7%
cAMP production
  modulation of cAMP production: inactivity
Thrombus formation; 5 mg/kg infused every 30 minutes, FIG. 4B
  inhibition of platelet accumulation during thrombus formation: > 90%
Thrombus formation; infusion of 5 mg/kg, FIG. 4C
  fibrin generation during thrombus formation: impaired
platelets
  concentration tested without reaching an IC50 for other agonists, relative to IC50 for PAR1-mediated secretion: > 30 fold
platelets; P-selectin surface expression
  IC50 for inhibition of other agonists: not reached
PAR1
  PAR1-mediated platelet aggregation: inhibited
  PAR1-mediated platelet shape change: failed to inhibit
[2]
  PAR1-mediated (SFLLRN) change in TER: failed to inhibit
Par1 (thrombin) receptor
  IC50: 4.87 µM and 5.28 µM
[3]
  stability in human plasma: good stability
PAR4
  platelet activation through PAR4: without inhibiting
Gαq-mediated Ca2+ flux
  Gαq-mediated Ca2+ flux: inhibited
